Experimental data as given in ChEMBL document CHEMBL1201862, “PubChem BioAssay data set” (2004).
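Protocol summary: plate cells (96-well), add compound at 5 concentrations, incubate 48 h, interpolate endpoints linearly. GI50 is the concentration that inhibits growth by half.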 Active and inactive are the calls of the source. Cut-off read from the data, not from the text of the source: active = GI50 up to about 1.1 µM and inactive = higher.

What was measured:
Assay in all cases: NCI anticancer screen, dose series, 48 h
[1] = tested on: CCRF-CEM
[2] = tested on: COLO 205
[3] = tested on: DMS-114
[4] = tested on: HL-60
[5] = tested on: HT-29
[6] = tested on: K562
[7] = tested on: KM12
[8] = tested on: LOX IMVI
[9] = tested on: NCI-H23
[10] = tested on: NCI-H460
[11] = tested on: OVCAR-3
[12] = tested on: OVCAR-5
[13] = tested on: OVCAR-8
[14] = tested on: SN12C
[15] = tested on: SNB-19
[16] = tested on: SW-620
[17] = tested on: HOP-62
[18] = tested on: SK-MEL-2

Measured: GI50

Cn1cc(NC(=O)c2cc(NC(=O)CCCCCCC(=O)Nc3cc(C(=O)Nc4cc(C(=O)NCCC(=N)N)n(C)c4)n(C)c3)cn2C)cc1C(=O)NCCC(=N)N
inactive: [1] > 100 µM | [2] 6.08 µM | [3] 2.47 µM | [4] 2.84 µM | [5] 73.6 µM | [6] 5.35 µM | [7] 2.92 µM | [8] 5.75 µM | [9] 3.91 µM | [10] 3.68 µM | [11] 24.5 µM | [12] > 100 µM | [13] 16.3 µM | [14] 3.84 µM | [15] 29.2 µM | [16] 29.7 µM

CCN(CC)CC1c2ccccc2C(CNc2ccccc2)N1C (stereo not drawn)
inactive: [1] 83.8 µM | [2] > 100 µM | [3] > 100 µM | [4] 29.6 µM | [17] > 100 µM | [6] 57.8 µM | [7] > 100 µM | [8] > 100 µM | [9] > 100 µM | [10] > 100 µM | [11] > 100 µM | [12] > 100 µM | [13] > 100 µM | [18] > 100 µM | [14] > 100 µM | [15] > 100 µM | [16] > 100 µM

N#CC(NNC(=O)c1ccccc1O)c1cccc(O)c1 (stereo not drawn)
inactive: [1] 4.66 µM | [2] 32.7 µM | [3] 3.61 µM | [4] 4.74 µM | [17] 10.6 µM | [5] 37.6 µM | [6] 2.31 µM | [7] 4.52 µM | [8] 4.94 µM | [9] 2.9 µM | [10] 3.47 µM | [11] 13 µM | [12] 54.7 µM | [13] 8.22 µM | [18] 5.7 µM | [14] 4.7 µM | [16] 30.1 µM

N#Cc1cccc(-n2[nH]c(=O)ccc2=O)c1
inactive: [1] > 100 µM | [2] > 100 µM | [3] > 100 µM | [4] > 100 µM | [17] > 100 µM | [5] > 100 µM | [6] > 100 µM | [7] > 100 µM | [9] > 100 µM | [10] > 100 µM | [11] > 100 µM | [12] > 100 µM | [13] > 100 µM | [18] > 100 µM | [15] > 100 µM | [16] > 100 µM

Cc1ccc(C(=O)O)cc1NC(=O)c1cc(/C=C/c2ccccc2)[nH]c(=S)n1
inactive: [1] > 64.7 µM | [2] > 65.8 µM | [3] > 57 µM | [4] > 69 µM | [17] > 100 µM | [5] > 64.4 µM | [6] > 54.8 µM | [7] > 100 µM | [8] > 100 µM | [9] > 100 µM | [10] > 100 µM | [11] > 100 µM | [12] > 100 µM | [13] > 100 µM | [14] > 100 µM | [15] > 100 µM | [16] > 28.9 µM

Cc1oc2c(C)c3oc(=O)cc(C)c3cc2c1CNC(=O)[C@@H]1OCCOCCOCCOCCOCCOC1C(=O)O (stereo partly drawn)
inactive: [1] > 100 µM | [2] > 100 µM | [3] > 100 µM | [4] > 100 µM | [17] > 100 µM | [5] > 100 µM | [6] > 100 µM | [7] > 100 µM | [8] > 100 µM | [9] > 100 µM | [10] > 100 µM | [11] > 100 µM | [12] > 100 µM | [13] > 100 µM | [14] > 100 µM | [15] > 100 µM | [16] > 100 µM

O=C1C=CC2(C=C1)CCNC1=C2C(=O)c2ccccc2C1=O
inactive: [1] > 100 µM | [2] > 100 µM | [3] > 100 µM | [4] > 100 µM | [17] > 100 µM | [5] > 100 µM | [6] > 100 µM | [7] > 100 µM | [8] > 100 µM | [9] > 100 µM | [10] > 100 µM | [11] 28.5 µM | [12] > 100 µM | [13] > 100 µM | [18] > 100 µM | [14] > 100 µM | [16] > 100 µM

O=Cc1c[nH]c2c(=O)[nH]cnc12
inactive: [1] > 100 µM | [2] > 100 µM | [3] > 100 µM | [4] > 100 µM | [17] > 100 µM | [5] > 100 µM | [6] > 100 µM | [7] > 100 µM | [8] > 100 µM | [9] > 100 µM | [11] > 100 µM | [13] > 100 µM | [18] > 100 µM | [14] > 100 µM | [15] > 100 µM | [16] > 100 µM
